# Results from patent publication US9109041B2, “Analog compounds of analgesic peptides derived from the venom of crotalus durissus terrificus snakes, their uses, compositions, methods of preparation and purification” (priority 2004, dated 2015).
# Experiments:
# [1] = system: allodynia induced by constriction of the sciatic nerve; experiment: allodynia induced by chronic constriction of the sciatic nerve (von Frey hairs); assay type: in vivo, rat
# Experimental: For the induction of neuropathic pain, surgery was performed in the sciatic nerve, in accordance with the method described by Bennett, G. J and Xie, Y. K. (Pain, 33:87-107, 1988). The animals were anesthetized with halothane. The sciatic nerve was exposed in the middle region of the thigh, moving away the femoral biceps muscle. Close to the trifurcation of the sciatic nerve, 7 mm of distance from the trifurcation, 4 loose ligations were performed (chromed catgut 4-0) around it, distant from each other in approximately 1 mm. The bindings were performed along the nerve, up to 4-5 mm from the initial point. The incision was sutured in layers, using silk suture thread number 4-0.
# Allodynia was evaluated for quantitative testing, in response to tactile stimulus applied to the paws of the rat, according to the method described by Chaplan el al. (1994), modified. In this test, the rats were placed, individually, in plastic cages, with meshed wire at the bottom, to allow access to the paws of these animals. Briefly, a logarithmic series of 10 calibrated Semmes-Weinstein monofilaments (von Frey hairs, Aesthesiometer Semmer-Weinstein, Stoelting Co., E.U.A) was applied to the right hind paw to determine the stimulus intensity threshold stiffness required to elicit a paw withdrawal response. Log stiffness of the hairs is determined by log 10 (mg×10) having the following values (the value in grams is between parenthesis): 3.61 (0.407 g); 3.84 (0.692 g); 4.08 (1.202 g); 4.17 (1.479 g); 4.31 (2.041 g); 4.56 (3.630 g); 4.74 (5.495 g); 4.93 (8.511 g); 5.07 (11.749 g) and 5.18 (15.136 g). It is important to point out that the filaments with weight greater than 15.136 g were not employed in the studies of allodynia.
# The filaments were applied, one by one, perpendicularly, under the plantar area of both hind paws and maintained for a period of 8 seconds. The filament capable of eliciting the withdrawal of the paw, two consecutive times, was considered as the force in grams necessary to elicit the response (100% of response). In the absence of a response to the greater stimulus (15.135 g), this filament was considered as cut value.
# The behavioral responses were used to calculate the 50% paw withdrawal threshold (absolute threshold), by fitting a gaussian integral psychometric function, using a maximum-likelihood fitting method. This fitting method allows parametric analyses.
# The period of the application of the test and the treatments were the same as those used for determination of hyperalgesia (Table 12).
# The results were analyzed by comparing the means of the basal and initial measurements or, when determined, by comparing the means obtained in the different experimental groups.
# For this purpose, the animals were treated with CTOP, a specific μ receptor antagonist (20 μg/paw), nor-BNI, a specific κ receptor antagonist (50 μg/paw) or with ICI 174,864, a specific δ receptor antagonist (10 μg/paw). The antagonists were injected, by intraplantar route. The peptide was administered in the dose of 5 μg/kg, orally, immediately before the injection of the opioid antagonists.
# The results were analyzed comparing the mean values of the basal and initial measurements, or of the initial and final measurements or, when determined, by comparing the mean values obtained in the different experimental groups (Tables 15 and 16).
# [2] = system: carrageenin-induced hyperalgesia; experiment: rat paw pressure test, carrageenin-induced hyperalgesia; assay type: in vivo
# Experimental: The antinociceptive effect of the synthetic peptide was evaluated in the inflammatory hyperalgesia induced by carrageenin. […] Saline, administered by the same route was used as control.
# As determined in the PGE2 model, the participation of opioid receptors in the antinociceptive effect of the peptide SEQ ID NO: 2 in the carrageenin-induced hyperalgesia (Table 10) was investigated. Therefore, the animals were treated with CTOP, a specific μ receptor antagonist (20 μg/paw), nor-BNI, a specific κ receptor antagonist (50 μg/paw) or with ICI 174.864, a specific δ receptor antagonist (10 μg/paw), injected by i.pl. route concomitantly to carrageenin. Peptide was administered in the dose of 1 μg/kg, orally, immediately before carrageenin.
substance,measurement,setting,value
Xaa-Phe-Ser-Pro-Glu-Asn-Cys-Gln-Gly-Glu-Ser-Gln-Pro-Cys [SEQ ID NO: 2],"paw withdrawal threshold (allodynia), BM","[1]; 5 μg/kg p.o. + CTOP 20 μg/paw i.pl., before surgery",4.99 ± 0.02 log 10 (mg × 10)
same,"paw withdrawal threshold (allodynia), IM","[1]; 5 μg/kg p.o. + CTOP 20 μg/paw i.pl., day 14, before peptide",4.29 ± 0.04 log 10 (mg × 10)
same,"paw withdrawal threshold (allodynia), FM 1 h","[1]; 5 μg/kg p.o. + ICI 174,864 10 μg/paw i.pl., 1 h after peptide",4.22 ± 0 log 10 (mg × 10)
same,"paw withdrawal threshold (allodynia), FM 3 h","[1]; 5 μg/kg p.o. + ICI 174,864 10 μg/paw i.pl., 3 h after peptide",4.22 ± 0 log 10 (mg × 10)
same,"paw withdrawal threshold (allodynia), BM","[1]; 5 μg/kg p.o. + ICI 174,864 10 μg/paw i.pl., before surgery",4.96 ± 0.04 log 10 (mg × 10)
same,"paw withdrawal threshold (allodynia), IM","[1]; 5 μg/kg p.o. + ICI 174,864 10 μg/paw i.pl., day 14, before peptide",4.29 ± 0.04 log 10 (mg × 10)
same,"paw withdrawal threshold (allodynia), FM 1 h","[1]; 5 μg/kg p.o. + nor-BNI 50 μg/paw i.pl., 1 h after peptide",4.62 ± 0 log 10 (mg × 10)
same,"paw withdrawal threshold (allodynia), FM 3 h","[1]; 5 μg/kg p.o. + nor-BNI 50 μg/paw i.pl., 3 h after peptide",4.62 ± 0 log 10 (mg × 10)
same,"paw withdrawal threshold (allodynia), BM","[1]; 5 μg/kg p.o. + nor-BNI 50 μg/paw i.pl., before surgery",5.03 ± 0.02 log 10 (mg × 10)
same,"paw withdrawal threshold (allodynia), IM","[1]; 5 μg/kg p.o. + nor-BNI 50 μg/paw i.pl., day 14, before peptide",4.25 ± 0.03 log 10 (mg × 10)
same,"paw withdrawal threshold (allodynia), FM 1 h","[1]; 5 μg/kg p.o., 1 h after peptide (Table 16)",5.08 ± 0.01 log 10 (mg × 10)
same,"paw withdrawal threshold (allodynia), FM 3 h","[1]; 5 μg/kg p.o., 3 h after peptide (Table 16)",5.09 ± 0 log 10 (mg × 10)
same,"paw withdrawal threshold (allodynia), BM","[1]; 5 μg/kg p.o., before surgery (Table 12)",4.99 ± 0.03 log 10 (mg × 10)
same,"paw withdrawal threshold (allodynia), BM","[1]; 5 μg/kg p.o., before surgery (Table 16)",5.00 ± 0.03 log 10 (mg × 10)
same,"paw withdrawal threshold (allodynia), FM 1 h","[1]; 5 μg/kg p.o., day 14, 1 h after peptide (Table 12)",4.94 ± 0.05 log 10 (mg × 10)
same,"paw withdrawal threshold (allodynia), FM 3 h","[1]; 5 μg/kg p.o., day 14, 3 h after peptide (Table 12)",4.98 ± 0.04 log 10 (mg × 10)
same,"paw withdrawal threshold (allodynia), FM 24 h","[1]; 5 μg/kg p.o., day 14, 24 h after peptide",4.97 ± 0.03 log 10 (mg × 10)
same,"paw withdrawal threshold (allodynia), FM 48 h","[1]; 5 μg/kg p.o., day 14, 48 h after peptide",4.93 ± 0.04 log 10 (mg × 10)
same,"paw withdrawal threshold (allodynia), FM 72 h","[1]; 5 μg/kg p.o., day 14, 72 h after peptide",4.85 ± 0.02 log 10 (mg × 10)
same,"paw withdrawal threshold (allodynia), FM 96 h","[1]; 5 μg/kg p.o., day 14, 96 h after peptide",4.21 ± 0.01 log 10 (mg × 10)
same,"paw withdrawal threshold (allodynia), IM","[1]; 5 μg/kg p.o., day 14, before peptide (Table 16)",4.27 ± 0.04 log 10 (mg × 10)
same,"paw withdrawal threshold (allodynia), IM","[1]; 5 μg/kg p.o., day 14 after surgery, before peptide (Table 12)",4.23 ± 0.00 log 10 (mg × 10)
same,duration of the anti-allodynic effect,[1]; one single administration p.o.,up to 3 days
same,effect of the mu opioid receptor antagonist on the anti-allodynic effect of the peptide,"[1]; peptide 5 μg/kg p.o., CTOP 20 μg/paw i.pl.",did not alter
same,effect of the delta opioid receptor antagonist on the anti-allodynic effect of the peptide,"[1]; peptide 5 μg/kg p.o., ICI 174,864 10 μg/paw i.pl.",blocked
same,effect of the kappa opioid receptor antagonist on the anti-allodynic effect of the peptide,"[1]; peptide 5 μg/kg p.o., nor-BNI 50 μg/paw i.pl.",partially inhibited
same,"pain threshold, FM (g) ± S.E.M","[2]; 1 μg/kg p.o. + CTOP 20 μg/paw i.pl. with carrageenin, after carrageenin",126 ± 2.92 g
same,"pain threshold, IM (g) ± S.E.M.","[2]; 1 μg/kg p.o. + CTOP 20 μg/paw i.pl., before carrageenin",76 ± 1.87 g
same,"pain threshold, FM (g) ± S.E.M","[2]; 1 μg/kg p.o. + ICI174,864 10 μg/paw i.pl. with carrageenin, after carrageenin",128 ± 2.00 g
same,"pain threshold, IM (g) ± S.E.M.","[2]; 1 μg/kg p.o. + ICI174,864 10 μg/paw i.pl., before carrageenin",77 ± 1.22 g
same,"pain threshold, FM (g) ± S.E.M","[2]; 1 μg/kg p.o. + nor-BNI 50 μg/paw i.pl. with carrageenin, after carrageenin",56 ± 1.00 g
same,"pain threshold, IM (g) ± S.E.M.","[2]; 1 μg/kg p.o. + nor-BNI 50 μg/paw i.pl., before carrageenin",78 ± 2.00 g
same,"pain threshold, FM (g) ± S.E.M","[2]; 1 μg/kg p.o., 3 h after carrageenin 200 μg/paw (Table 9)",116 ± 1.87 g
same,"pain threshold, FM (g) ± S.E.M","[2]; 1 μg/kg p.o., after carrageenin (Table 10)",129 ± 1.87 g
same,"pain threshold, IM (g) ± S.E.M.","[2]; 1 μg/kg p.o., before carrageenin (Table 9)",77 ± 2.00 g
same,"pain threshold, IM (g) ± S.E.M.","[2]; 1 μg/kg p.o., before carrageenin (Table 10)",77 ± 1.22 g
same,opioid receptor antagonist interfering with the antinociceptive effect,"[2]; peptide 1 μg/kg p.o., mu, kappa, delta antagonists i.pl.",only kappa opioid receptor antagonist was able to interfere
